From patent publication US12048761B2, “Methods and pharmaceutical compositions for the treatment of retinal capillary non-perfusion” (INSERM (INSTITUT NATIONAL DE LA SANTÉ ET DE LA RECHERCHE …, priority 2015, dated 2024)
“Also recorded” adds a separate entry of the source.

How the values were obtained:
[1] = tested on: retinal capillary network; assay: Quantitative assessment of the retinal microangiopathy: lectin-labelled capillary surface on flat-mounted retina; type: in vivo, rat; conditions: GK rats, n=4 Fasudil and n=5 vehicle, p<0.05
Procedure: For intravitreous injections, diabetic rats were anesthetized with an intraperitoneal injection of pentobarbital (40 mg/kg Nembutal, Abbot, Saint-Remy sur Avre, France) and pupils were dilated with a topically applied drop of 5% tropicamide (Ciba Vision, Toulouse, France), and locally anesthetized with a drop of 1% tetracaine (Ciba Vision). Three consecutive injections, of Fasudil at a concentration of 20 µM or vehicle were performed, at 48 hours interval under a surgical microscope, using a 30-gauge needle (Microfine: Becton Dickinson, Meylan, France as described previously). Animals were sacrificed 48 hours following the administration of 3 intra-vitreous injections of 20 μM of Fasudil, each injection was 2 days apart. To quantify the area of large and small blood vessels on flat mounted retina, an ImageJ macro was created in Fiji. Briefly, the local thickness function available with the Fiji plugin for ImageJ software was used to create a map of the blood vessels, from which diameter of the local structures could be evaluated. This map was thresholded to define two binary masks corresponding to the vessels of large diameter (local thickness>threshold) and the vessels of small diameter (local thickness<threshold). The area of those masks was then measured and expressed in terms of the surface area occupied by the small vessels.

ROCK1/P-MLC = assay: Immunolocalization of ROCK1 and P-MLC on RPE cell flatmounts; type: in vivo, rat; conditions: GK diabetic rats, 3 intravitreous injections of 20 μM
Procedure: (§3) For intravitreous injections, diabetic rats were anesthetized with an intraperitoneal injection of pentobarbital (40 mg/kg Nembutal, Abbot, Saint-Remy sur Avre, France) and pupils were dilated with a topically applied drop of 5% tropicamide (Ciba Vision, Toulouse, France), and locally anesthetized with a drop of 1% tetracaine (Ciba Vision). Three consecutive injections, of Fasudil at a concentration of 20 M or vehicle were performed, at 48 hours interval under a surgical microscope, using a 30-gauge needle (Microfine: Becton Dickinson, Meylan, France as described previously [29-31]). Animals were sacrificed 48 hours following the administration of 3 intra-vitreous injections of 20 μM of Fasudil, each injection was 2 days apart.
For flatmounts, after enucleation, ocular globes were fixed in 4% paraformaldehyde (PFA) for 15 min at room temperature and sectioned at the limbus; anterior segments were discarded. Neural retinas and RPE/choroids were fixed separately for additional 15 min in acetone at −20° C. Specimens were then incubated overnight at 4° C. with primary antibodies diluted in PBS supplemented with 10% foetal calf serum (FCS) and 0.1% Triton X-100. Immunohistochemistry was repeated at least 7 times on 7 different animals for each group.

retinal vessels = assay: In vivo imaging of retinal vessels using confocal angiography; parameters: species or system rat; conditions: GK rats, intravitreal fasudil, p<0.05
Procedure: (§1) For intravitreous injections, diabetic rats were anesthetized with an intraperitoneal injection of pentobarbital (40 mg/kg Nembutal, Abbot, Saint-Remy sur Avre, France) and pupils were dilated with a topically applied drop of 5% tropicamide (Ciba Vision, Toulouse, France), and locally anesthetized with a drop of 1% tetracaine (Ciba Vision). Three consecutive injections, of Fasudil at a concentration of 20 µM or vehicle were performed, at 48 hours interval under a surgical microscope, using a 30-gauge needle (Microfine: Becton Dickinson, Meylan, France as described previously). Animals were sacrificed 48 hours following the administration of 3 intra-vitreous injections of 20 μM of Fasudil, each injection was 2 days apart.

[2] = tested on: outer retinal barrier (RPE); assay: Blood-retinal barrier breakdown using intravenous injection of 150 KDa FITC-dextran; type: in vivo, rat
Procedure: as §1, with “apart. To assess blood retinal barrier breakdown, 200 μl of 150 KDa FITC-dextran at 50 mg/ml in PBS (Sigma) was injected intravenously in the tail of rats treated by Fasudil or vehicle (n=5), 2 hours prior killing. Leakage of FITC-dextran was evaluated by measuring fluorescence within the retina using imageJ software as previously described by others. Cryosections (10 μm) of Fasudil and vehicles injected rats retina were randomly imaged (10 images at 40× magnification per animal) and analysed.” for “apart.”

RPE cells = assay: Quantitative analysis of RPE cell layer morphology on RPE flat-mounts; type: in vivo, rat; conditions: Fasudil vs vehicle
Procedure: For intravitreous injections, diabetic rats were anesthetized with an intraperitoneal injection of pentobarbital (40 mg/kg Nembutal, Abbot, Saint-Remy sur Avre, France) and pupils were dilated with a topically applied drop of 5% tropicamide (Ciba Vision, Toulouse, France), and locally anesthetized with a drop of 1% tetracaine (Ciba Vision). Three consecutive injections, of Fasudil at a concentration of 20 µM or vehicle were performed, at 48 hours interval under a surgical microscope, using a 30-gauge needle (Microfine: Becton Dickinson, Meylan, France as described previously). Animals were sacrificed 48 hours following the administration of 3 intra-vitreous injections of 20 μM of Fasudil, each injection was 2 days apart. To analyse RPE flat-mounts and in order to assess the cell morphology. an ImageJ [32] macro tool was created in Fiji. Briefly, after a first image processing by FFT band pass filtering, images were converted into binary format and masked and then processed to obtain a skeleton image (isolated segments and loops were removed). This image was inverted and the cells segmented and labelled with the “particle analysis” tool in ImageJ, the Regions of Interest (ROI) were delimited using ROI Manager tool. The number of vertices for each cell was measured following detection of triple points (points were three branches are joined together) with the appropriate binary “hit or miss” transformation. For this transformation, the ImageJ plugin “morphology” was used. By removing those points from the skeleton image, the number of individual edges was counted as well as their length. The number of vertices was then verified and manually corrected for errors. Images with more than 5% automatic alignment errors were eliminated from analysis. Following this several morphological parameters were then measured for each cell e.g. area, perimeter, circularity, number of neighbours/vertices/edges of a cell etc. […]

VEGF = VEGF western blot in neural retina and VEGF immunostaining on retinal flatmounts; type: in vivo, rat; conditions: GK rats, Fasudil vs vehicle, n=8/group, western blot (VEGF-164, neural retina)
Procedure: (§2) For intravitreous injections, diabetic rats were anesthetized with an intraperitoneal injection of pentobarbital (40 mg/kg Nembutal, Abbot, Saint-Remy sur Avre, France) and pupils were dilated with a topically applied drop of 5% tropicamide (Ciba Vision, Toulouse, France), and locally anesthetized with a drop of 1% tetracaine (Ciba Vision). Three consecutive injections, of Fasudil at a concentration of 20 µM or vehicle were performed, at 48 hours interval under a surgical microscope, using a 30-gauge needle (Microfine: Becton Dickinson, Meylan, France as described previously). […] Protein concentration was determined using a (Pierce BCA protein assay kit Thermo Scientific Rockford USA) (20-40 μg) were subjected to SDS-PAGE on Nupage 4-12% Bis-Tris gel electrophoresis, and electroblotted onto nitrocellulose membranes (Optitran BA-S 83 GE Healthcare Life Science Whatman). […] Then, membranes were incubated with the corresponding peroxidase-conjugated F(ab)2 fragment (Santa cruz Biotechnology Inc, Santa Cruz, CA, USA (dilution 1:5000) secondary antibodies. Immunoreactive bands were detected with the ECL Western blotting Detection Reagents Kit (Thermo Scientific Rockford USA). The relative abundance of individual proteins identified was quantified by scanning densitometry. The list of antibodies used for western-blots are provided in Table 2.

p-MLC = assay: Western blotting of p-MLC protein level in RPE; type: in vivo, rat; conditions: GK diabetic rats, 3 intravitreous injections of 20 μM, vs vehicle
Procedure: as §2

ROCK-1 = assay: Western blotting of ROCK1 protein level in RPE; type: in vivo, rat; conditions: GK diabetic rats, 3 intravitreous injections of 20 μM, vs vehicle injected eyes, n=6
Procedure: as §3
RPE/choroid and neural retina were homogenized in a lysis buffer (50 mM Mops, 50 mM Trisbase, 0.1%, SDS 1 mM EDTA PH 7.7) containing a protease inhibitor cocktail (Roche, France). Protein concentration was determined using a (Pierce BCA protein assay kit Thermo Scientific Rockford USA) (20-40 μg) were subjected to SDS-PAGE on Nupage 4-12% Bis-Tris gel electrophoresis, and electroblotted onto nitrocellulose membranes (Optitran BA-S 83 GE Healthcare Life Science Whatman). Membranes were incubated with primary antibodies.

ROCK [3] = assay: ROCK Activity Immunoblot Kit: phosphorylation of recombinant MYPT1 by RPE/choroid samples of treated GK rats; type: in vivo, rat; conditions: GK diabetic rats, 3 intravitreous injections of 20 μM, vs vehicle
Procedure: We used a ROCK Activity Immunoblot Kit (Cell Biolabs, San Diego, CA, USA) that utilizes recombinant MYPT1 as a ROCK substrate. ROCK inactivates myosin phosphatase through a specific phosphorylation of myosin phosphatase target subunit 1 (MYPT1) at Thr696, which results in an increase in the phosphorylated content of the 20-kDa myosin light chain. (MLC20) After incubating the substrate (recombinant MYPT1) with RPE/choroid samples, the phosphorylated MYPT1 was detected by western blot analysis using an anti-phospho-MYPT1 (Thr696). In brief, RPE/choroid protein samples were diluted in 1× Kinase buffer. 25 μL (75 μg of proteins) was added in microcentrifuge tubes and the initiation of kinase reaction was performed by adding 50 μL of 1× Kinase/ATP/Substrate Solution. The microcentrifuge tubes were then incubated at 30° C. for 30-60 minutes with gentle agitation. Then the kinase reaction was stopped by adding 25 μL of 4× reducing SDS-PAGE sample buffer. […] Inhibition of ROCK activity was evaluated by western blotting and quantified.

ROCK [4] = conditions: cited from earlier work

Row | SMILES | capillary density (% of surface coverage by small vessels) [1] | localization of ROCK1/P-MLC in RPE cells (ROCK1/P-MLC) | vasodilation of retinal vessels (vascular diameter before and after treatment) (retinal vessels) | RPE barrier on histological sections ([2]; GK eyes, Fasudil treated) | vessel leakage (neural retina corrected total fluorescence) ([2]; GK eyes, Fasudil vs vehicle, n=5-6, p<0.01) | passage of 150 KDa FITC-dextran across the RPE barrier ([2]; GK rats, 2 hours after intravenous FITC-dextran, qualitative on cryosections) | frequency of normal size RPE cells (RPE cells; GK retina, p<0.001) | frequency of small RPE cells (<200 μm2) (RPE cells; GK retina, p<0.001) | distribution of RPE cell area (RPE cells; WS (non-diabetic Wistar) retina, ANOVA p=0.17) | VEGF levels in retina (VEGF) | phosphorylated MLC in the RPE (p-MLC) | total ROCK-1 in the RPE (ROCK-1) | phosphorylated MYTP1 in the RPE (ROCK-1 activity) (ROCK [3]) | affinity to ROCK relative to Fasudil (ROCK [4])
1 | O=S(=O)(c1cccc2cnccc12)N1CCCNCC1 [Fasudil, hexahydro-1-(5-isoquinolylsulfonyl)-1H-1,4-di-azepime] | significantly increased | relocation of ROCK1/P-MLC from the membrane into the cytoplasm | significant effect of fasudil on retinal vessel diameter; also recorded: significant vasodilation | intact RPE barrier | significant reduction in vessel leakage | did not cross the RPE barrier | increase frequency of normal size cells | significantly less small cells; also recorded: reduction in the frequency of small cells | no difference in distribution of cell area | significant decrease | significant reduction | not significantly decreased | significant reduction | –
2 | O=c1[nH]ccc2c(S(=O)(=O)N3CCCNCC3)cccc12 [Hydroxyfasudil] | – | – | – | – | – | – | – | – | – | – | – | – | – | higher affinity
